Assay results published in patent US20090197811A1, “ORALLY ADMINISTERED PEPTIDES TO IMPROVE OR PREVENT HEPATIC FIBROSIS” (University of Southern California, priority 2007, published 2009).
Non-standard residues stand in square brackets, D forms with d.

Columns and labels:
[1] = test system: C57Bl/6J mice; experiment: Western diet model: biochemical findings and liver and body weights; type: in vivo, mouse; conditions: for GSH / TBARS: liver; for ALT / AST / Adiponectin / Cholesterol / Glucose / Insulin / Leptin / Triglycerides: serum
Procedure: SR141716 was a kind gift from Sanofi-Aventis, France. SR141716 was dissolved in water with 0.1% Tween and given daily by gavage for 10 weeks. D-4F is an 18-mer of D-amino acids (Ac-D-W-F-K-A-F-Y-D-K-V-A-E-K-F-K-E-A-F-NH2)^4 (SEQ ID NO: 1) that was commercially synthesized (A & A Laboratories, San Diego Calif.) with 80% purity. D-4F was dissolved in the drinking water at a concentration of 60 μg/ml water for a calculated dose corrected for drug purity of 125 μg D-4F/mouse/day.
The high fat diet used was the RD “Western diet” (Research Diets, D12079B), which contains 41% of calories from fat, 43% calories from carbohydrate, and 17% of calories from protein); this diet was designed to approximate the “typical” human diet of North America and Europe.
(§1) Studies were performed in male C5713L/6J mice (Jackson Laboratories, Bar Harbor Me.). Six groups were studied (n=3-5, see FIG. 1) with 4 mice per group at the outset, except for group 2, which was started with n=5; 1 mouse died in group 1. Groups 1, 2, and 3 received the Western diet for 9.5 months; during the last 2.5 months of the 9.5 months, group 2 received SR141716 10 mg/kg/day i.g., and group 3 received D-4F, 125 μg/mouse/day, in the drinking water. Groups 4, 5, and 6 received the Western diet for 7 months followed by standard chow for 2.5 months; during the 2.5 months on standard chow, group 5 received SR141716 and group 6 received D-4F as described for groups 2 and 3, respectively. Additional control groups were studied: 6-month old C57Bl/6J mice as age-matched controls (n=5) and C57Bl/6J mice that received the Western diet for 6 months (n=6).
Serum aspartate amino transferase (AST) and alanine aminotransferase (ALT) were measured with the Infinity AST and ALT liquid assay reagent (Thermo Electron Corporation, Louisville Colo., cat #TR70121 and TR71121). Serum triglycerides and cholesterol were measured with the Infinity cholesterol assay reagent (Thermo Electron Corporation, Louisville Colo., cat #TR22321 and TR13315). Serum glucose was measured with the Glucose (HK) assay kit (Sigma, St. Louis, Mo., cat #GAHK-20). Serum insulin was measured with the Mercodia Ultrasensitive mouse insulin ELISA kit (ALPCO Diagnostics, Salem N.H., cat #10 1150-01). The homeostasis model assessment insulin resistance index (HOMA-IR) was calculated as [fasting glucose (mmol/liter)*fasting insulin (microunits/ml)]/22.5^17, 18. Serum leptin was measured with the TiterZyme EIA mouse leptin kit (Assay Designs Inc, Ann Arbor Mich., cat #900-019). Serum adiponectin was measured with the mouse adiponectin kit (Biovendor LLC, Candler N.C., cat #RD 293023100). Thiobarbituric acid reactive substance (TBARS) was measured as previously described^19, 20; in brief, liver was homogenized and diluted 1:1 in 10% ice cold trichloroacetic acid. 0.5 ml supernatant or of a standard solution of 1,1,3,3-tetraethoxypropane was mixed with 0.5 ml of 0.6% (w/v) 4,6-dihydroxy-2-thiopyrimidine. The solution was boiled for 30 min, cooled and centrifuged. Absorbance was measured at 532 nm with a Shimadzu TV-2101 PC spectrophotometer. To measure hepatic glutathione (GSH), liver was homogenized and diluted 1:1 in 10% ice cold trichloroacetic acid. GSH in the supernatant was measured according to the recycling assay of Tietze^21.

[2] = test system: C57Bl/6J mice; experiment: Western diet model: fibrosis by Sirius red whole-section-scanning morphometric image analysis; type: in vivo, mouse
Procedure: as §1
Sirius red staining was performed by the Morphology core of the USC-UCLA Research Center for Alcoholic Liver and Pancreatic Diseases. α-Smooth muscle actin.
Tissue sections stained with Sirius red were scanned by a third-generation Automated Cellular Imaging System (ACIS III), a highly automated microscope-based digital imaging system (Carl Zeiss MicroImaging AIS Inc., Aliso Viejo Calif.). The color of the Sirius red staining in the digitized tissue sections was determined and applied to a pre-existing algorithm that provides the area of a target color in μm^2. The outline of each digitized tissue section was manually traced using the computer's mouse. Areas of large portal tracts and central veins were also outlined manually. The total area (μm^2) of each tissue section and of the total area of large portal tracts and central veins were determined by the image analysis system. The area of fibrosis was calculated as [total area stained by Sirius red minus perivascular staining] as a percentage of the size of the tissue section. This method has the advantage of scanning the entire section, rather than measuring fibrosis in randomly chosen fields.

[3] = 7 months Western diet followed by 2.5 months Western diet + drug
[4] = 7 months Western diet followed by 2.5 months chow + drug
[5] = group 3 vs group 1, Western diet 9.5 months, D-4F last 2.5 months

With “Ac-D-W-F-K-A-F-Y-D-K-V-A-E-K-F-K-E-A-F-NH2 (Ac-[dD][dW][dF][dK][dA][dF][dY][dD][dK][dV][dA][dE][dK][dF][dK][dE][dA][dF]-NH2; not fully specified; printed as Ac-D-W-F-K-A-F-Y-D-K-V-A-E-K-F-K-E-A-F-NH2) [D-4F]” the Body weight [1, 3] was 39.5 ± 0.8 g, the HOMA-IR [1, 3] was 63.3 ± 23.5 and the Liver weight [1, 3] was 2.42 ± 0.04 g. The Body weight [1, 4] was 35.9 ± 3.2 g, the HOMA-IR [1, 4] was 16.5 ± 2.2 and the “Liver weight” value [1, 4] was 1.67 ± 0.19 g. For the same substance, the “body weight, liver weight, serum transaminases, hyperglycemia, hyperinsulinemia, insulin resistance, overall hepatic oxidative stress” value [1, 5] was “no improvement”, the “leptin levels compared to mice on Western diet alone” value [1, 5] was “decreased by half” and the “total cholesterol compared to mice on Western diet alone” value [1, 5] was “decreased by half”. The GSH [1, 3] was 50.1 ± 5.8 nmole/mg protein, the TBARS [1, 3] was 29.4 ± 2.4 nmol/g tissue and the GSH [1, 4] was 82.8 ± 5.2 nmole/mg protein. It also gave a TBARS [1, 4] of 20.0 ± 0.6 nmol/g tissue, an ALT [1, 3] of 277.3 ± 18.2 U/L and an AST [1, 3] of 211.9 ± 19.1 U/L. It also gave an Adiponectin [1, 3] of 15.3 ± 1.0 µg/mL, a Cholesterol [1, 3] of 146.8 ± 2.1 mg/dL and a Glucose [1, 3] of 231.2 ± 18.0 mg/dL. For the same substance, the Insulin [1, 3] was 3.7 ± 1.1 ng/mL, the Leptin [1, 3] was 17.49 ± 1.41 ng/mL and the Triglycerides [1, 3] was 40.0 ± 6.7 mg/dL. For the same substance, the ALT [1, 4] was 69.1 ± 21.5 U/L, the AST [1, 4] was 104.2 ± 22.4 U/L and the Adiponectin [1, 4] was 18.52 ± 1.5 µg/mL. The Cholesterol [1, 4] was 120.8 ± 2.9 mg/dL, the Glucose [1, 4] was 159.2 ± 2.4 mg/dL and the Insulin [1, 4] was 1.46 ± 0.2 ng/mL. The Leptin [1, 4] was 8.70 ± 1.43 ng/mL, the Triglycerides [1, 4] was 49.1 ± 1.4 mg/dL and the “fibrosis (surface area positive for Sirius red staining)” value ([2]; group 3: Western diet 9.5 months, D-4F 125 μg/mouse/day in drinking water last 2.5 months, group 1 without drug 4.6±1.9%) was 1.25%. For the same substance, the “fibrosis (surface area positive for Sirius red staining)” value ([2]; group 6: 7 months Western diet, then 2.5 months chow plus D-4F, group 4 chow alone 2.8±0.7%) was 0.9±0.2% and the “progression of fibrosis after onset of steatohepatitis” value ([2]; summary statement) was “prevented progression of fibrosis”.
